Results published in patent US20080058211A1, “Method and Composition for the Modulation of Toxin Resistance in Plant Cells” (BOARD OF REGENTS, THE UNIVERSITY OF TEXAS SYSTEM, priority 2006, published 2008).

Assays:
[1] = system: Medicago truncatula pollen; experiment: in vitro pollen germination (Medicago); assay type: cell-based
Protocol: To determine if the affects of ATPγS on pollen germination was specific to Arabidopsis or a more generalized phenomenon, Medicago truncatula was also examined.
Strains and Growth Conditions. For the experiments related to the nitric oxide-ATP signaling relationship, all Arabidopsis thaliana plants were ecotype Wassilewskija (WS), and Medicago truncatula plants were strain A17. All of the plants were grown in Metro-Mix 200 soil at 24° C. with constant light. In vitro Pollen Germination. Arabidopsis flowers in stage 12-14 (Smyth et al., 1990) or Medicago truncatula flowers in stage F3 (Firnhaber et al., 2005) were collected and vortexed for 1 min in pollen germination media (PGM) (0.01% boric acid, 1 mM MgSO4, 1 mM CaCl2, 1 mM Ca(NO3)2, 5 mM HEPES, 18% Sucrose pH 7.0). The supernatant containing the pollen was collected by pipet, and up to three rounds of vortexing of the same pollen could be pooled together. The pollen suspended in PGM was then added in 10-12 μL drops to 400 μL PGM+1% agar that had been spread as a thin film across a microscope slide. […] The digital images were scored for the percent of pollen germinated using the AlphaEase software from Alpha Innotech. Pollen with tubes that were shorter than the diameter of the pollen grain were not counted as germinated or non-germinated. […]

Arabidopsis pollen [2] = experiment: in vitro pollen germination (Arabidopsis); assay type: cell-based, Arabidopsis thaliana
Protocol: Effects of Extracellular ATPγS and AMPαS on Pollen Germination. Arabidopsis pollen was germinated in pollen germination media (PGM) containing from about zero to about 400 μM ATPγS or AMPαS. […] The method of collection included vortexing flowers in PGM creating a homogenous suspension of pollen from tens to hundreds of flowers. This method caused the release of a small amount of ATP, 2-5 μM into the PGM (data not shown).
The nitric oxide signaling pathway mediates the inhibition of Arabidopsis pollen germination by ATPγS. To examine the downstream effectors involved in the inhibition of Arabidopsis pollen germination by ATPγS, different agonists and antagonists of the known nitric oxide signaling pathway were examined. […] Some of the nitric oxide signaling pathway agonists are water soluble while others are DMSO soluble.
Strains and Growth Conditions. For the experiments related to the nitric oxide-ATP signaling relationship, all Arabidopsis thaliana plants were ecotype Wassilewskija (WS), and Medicago truncatula plants were strain A17. All of the plants were grown in Metro-Mix 200 soil at 24° C. with constant light. In vitro Pollen Germination. Arabidopsis flowers in stage 12-14 (Smyth et al., 1990) or Medicago truncatula flowers in stage F3 (Firnhaber et al., 2005) were collected and vortexed for 1 min in pollen germination media (PGM) (0.01% boric acid, 1 mM MgSO4, 1 mM CaCl2, 1 mM Ca(NO3)2, 5 mM HEPES, 18% Sucrose pH 7.0). The supernatant containing the pollen was collected by pipet, and up to three rounds of vortexing of the same pollen could be pooled together. The pollen suspended in PGM was then added in 10-12 μL drops to 400 μL PGM+1% agar that had been spread as a thin film across a microscope slide. The slides and pollen were then placed into humidity chambers, petri dishes with water saturated kimwipes, and allowed to germinate at 26° C. overnight. Pictures of the germinated pollen were taken with a digital camera attached to a brightfield microscope at 40×. The digital images were scored for the percent of pollen germinated using the AlphaEase software from Alpha Innotech. Pollen with tubes that were shorter than the diameter of the pollen grain were not counted as germinated or non-germinated. The chemicals: ATPγS, AMPαS, N2, 2-O-dibutyrylguanosine 3′:5′-cyclic monophospohate (Dib cGMP), Sildenafil citrate (Viagra™, Pfizer), and 2-(N,N-Diethylamino)-diazenolate 2-oxide (NONOate) were added to the pollen/PGM suspension prior to adding the drops to the PGM+1% agar. The chemicals 1H-[1,2,4]Oxadiazolo[4,3,-a]quinoxalin-1-one (ODQ), N-[4-[1-(3-Aminopropyl)-2-hydroxy-2-nitrosohydrazino]butyl]-1,3-propanediamine (SNAP), and 3-isobutyl-1-methylxanthine (IBMX) were diluted in DMSO and added to the pollen/PGM suspension to a final concentration of DMSO of 0.1%.
For successful pollen germination it was critical for the plants to be healthy and growing in slightly dry soil. To achieve this, the plants were briefly watered 1-2 days before the experiment. As Johnson-Brousseau and McCormick note in their paper (Johnson-Brousseau and McCormick 2004), a solid base is necessary for best in vitro germination of Arabidopsis pollen. The pollen would not germinate in liquid PGM if not overlaid on a solid PGM+1% agar base, and the vortexing and deposition of the pollen/PGM suspension needed to take place in less than 30 minutes or germination rates dropped considerably.

Arabidopsis pollen [3] = conditions: cited from earlier work
[4] = system: nitric oxide levels in elongating Arabidopsis pollen tubes; experiment: nitric oxide in elongating pollen tubes, DAF-2D fluorescence; assay type: cell-based, Arabidopsis thaliana; conditions: 125 μM
Protocol: Increased extracellular ATPγS increases nitric oxide production in elongating pollen tubes. In addition to using agonists and antagonists to indirectly study the relationship of eATPγS and nitric oxide, direct measurements of increases in nitric oxide after application of ATPγS and AMPαS were examined. Pollen grains have a high level of auto-fluorescence and the nitric oxide levels in elongating Arabidopsis pollen tubes were determined using DAF-2D, a fluorescent marker for the presence of nitric oxide that was dissolved in DMSO. Elongating pollen tubes were treated with DAF-2D alone or with ATPγS or AMPαS.
Measurements of NO in growing pollen tubes treated with ATPγS or AMPαS. Pollen was germinated as described for the pollen elongation measurements. After 1-2 hours when pollen tubes were clearly visible, 90 μL of PGM containing 5 μM 4,5-diaminofluorescein diacetate (DAF-2D, Molecular Probes) with or without ATPγS or AMPαS was added. […] Using Image J, the average fluorescence for the pollen tubes on each slide and each time point were determined. Since background fluorescence for each slide varied, three areas where no pollen tubes were present were averaged and subtracted from the pollen tube averages for each slide. Pollen tubes with and without nucleotides were compared to each other at similar time points to determine if there was a difference in fluorescence.

Arabidopsis pollen tubes = experiment: pollen tube elongation; assay type: cell-based, Arabidopsis thaliana; conditions: about 0 to about 250 μM added after tubes had begun to grow
Protocol: Arabidopsis pollen tube elongation is inhibited by ATPγS. As vesicles fuse to deliver membranes to the tip of elongating pollen tubes, ATP is likely to be released. So ATPγS and AMPαS were investigated for their ability to affect pollen tube elongation. After pollen tubes had begun to grow, from about 0 to about 250 μM ATPγS or AMPαS were added and the subsequent growth rate was determined.
Blocking the nitric oxide signaling pathway reverses the inhibition of Arabidopsis elongation by ATPγS. The inhibition of Arabidopsis pollen tube elongation was also mediated via the NO signaling pathway. Pollen tube growth rates were measured in 0.5% DMSO with and without 100 μM ATPγS.
Measurements of pollen tube elongation. Pollen was germinated as described above except 10 μL drops of pollen/PGM suspension were added to 60 μL of PGM+1% agar that had been deposited into a concavity slide. The pollen was allowed to germinate for 1-2 h, so that pollen tubes were clearly visible. Then 90 μL of PGM or PGM containing ATPγS, AMPαS, DMSO or ODQ was added and a photo was taken using a brightfield microscope at 40×. The coordinates of each photo were noted, so that the exact pollen tubes could be photographed 50-60 minutes later. Using Image J, the pollen tube lengths for individual pollen tubes were measured and a growth rate of μm/min was determined.

roots = conditions: in vivo; cited from earlier work
Δ[Ca^2+]cyt = conditions: co-application with OGA; cited from earlier work
[5] = system: [Ca^2+]cyt in Arabidopsis seedlings; conditions: Arabidopsis seedlings (Jeter et al., 2004); cited from earlier work
Arabidopsis leaves = conditions: applied into intercellular spaces of leaves; cited from earlier work
[6] = system: [Ca^2+]cyt in excised roots; conditions: cited from earlier work
root hairs = conditions: cited from earlier work
[7] = system: root hairs of Arabidopsis thaliana; conditions: cited from earlier work
[8] = system: ATMEKK1, ATMPK3, ATPK19, ERF2, ERF3, ERF4 and ACS6 genes; conditions: application of 500 μM; cited from earlier work
LOX2, ACS6, PAL1 = conditions: cited from earlier work
[Ca^2+]cyt = dextran-conjugated calcium green as reporter; cited from earlier work
Arabidopsis roots = conditions: concentrations that inhibited gravitropic growth; cited from earlier work
maize roots = conditions: concentrations that inhibited gravitropic growth; cited from earlier work

Compound: Nc1ncnc2c1ncn2[C@@H]1O[C@H](COP(=O)(O)OP(=O)(O)OP(O)(O)=S)[C@@H](O)[C@H]1O [ATPγS]
- concentration from which pollen germination rates decrease [1]: 200 µM
- inhibition of pollen germination (Arabidopsis pollen [2]; 50 μM, 0.1% DMSO): inhibits
- inhibition of pollen germination (Arabidopsis pollen [2]; 50 μM, series with water-soluble agonists): not inhibitory
- inhibition of pollen germination (Arabidopsis pollen [2]; 100 μM, 0.1% DMSO): does not inhibit
- inhibition of pollen germination (Arabidopsis pollen [2]; 100 μM, series with water-soluble agonists): inhibitory
- concentration from which the pollen germination rate significantly decreased (Arabidopsis pollen [2]; PGM with about zero to about 400 μM): about 100 μM
- concentrations required for the responses of pollen (Arabidopsis pollen [2]; pollen germination and growth): 100 to 200 µM
- pollen germination (Arabidopsis pollen [3]; wild-type pollen, μM levels): inhibits pollen germination
- DAF-2D fluorescence [4]: significantly increased
- concentration that significantly inhibited pollen tube elongation (Arabidopsis pollen tubes): more than 150 μM
- concentration that could inhibit the straight growth of roots (roots): 0.3 mM
- effect on Δ[Ca2+]cyt together with OGA (Δ[Ca^2+]cyt): mutually enhanced
- concentrations needed to induce increases in [Ca2+]cyt [5]: 100 to 200 µM

Compound: Nc1ncnc2c1ncn2[C@@H]1O[C@H](COP(=O)(O)OP(=O)(O)OP(=O)(O)O)[C@@H](O)[C@H]1O [ATP]
- concentration sufficient to induce significant superoxide production (Arabidopsis leaves): 500 nM
- increase in [Ca2+]cyt ([6]; 300 nM ATP, excised roots, 10 mM CaCl2, in less than about 10 seconds): 2 fold
- [Ca2+]cyt after treatment ([6]; 1 μM ATP, from ca. 100 nM): over 400 nM
- increase in root hair growth (root hairs): not
- induction of membrane depolarization ([7]; applied nucleotide or phosphate): induced large depolarizations
- EC50 ([7]; dose-response studies, read-out: half-maximal depolarization): ~400 µM
- concentration shown to affect pollen germination (Arabidopsis pollen [3]; Steinenbrunner et al., 2003): 1 to 2 mM
- abundance of mRNAs (MAP kinases, ERF2, ERF3, ERF4, ACS6) [8]: induced an increased abundance
- message abundance for PAL1 (LOX2, ACS6, PAL1): increased
- expression of LOX2 and ACS6 (LOX2, ACS6, PAL1; micromolar concentrations that induced superoxide production): up-regulated
- change in [Ca2+]cyt ([Ca^2+]cyt): no change
- auxin transport (Arabidopsis roots): inhibited auxin transport
- concentration that could inhibit the straight growth of roots (roots): 3 mM
- auxin transport (maize roots): inhibited auxin transport
